# According to US20110045101A1, “FUNGICIDAL SUBSTITUTED AZOLES” (E.I. Du Pont De Nemours and Company, priority 2009, published 2011):
# Marks after values point to notes of the source that are not given here.
# Assays:
# Assay type in all cases: in vivo
# Conditions in all cases: 100 = 100% disease control
# [1] = test system: Botrytis cinerea; assay: Test C: tomato Botrytis on tomato seedlings, sprayed the day before inoculation, visual disease rating
# Method in brief: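 Rate: 200 ppm sprayed to run-off, corresponding to 500 g/ha; flagged values used 40 ppm. Vehicle was aqueous acetone (1:1) plus 250 ppm surfactant, compounds predissolved in acetone at 3% of volume. Plants were tomato seedlings.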
# [2] = test system: Alternaria solani; assay: Test D: tomato early blight, sprayed the day before inoculation, visual disease rating
# Method in brief: (§1)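 Plants received a run-off spray at 200 ppm (equivalent to 500 g/ha) or, for starred values, 40 ppm. Formulation used acetone at 3% of volume in a 50/50 acetone/water mix carrying 250 ppm Trem® 014.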
# [3] = test system: Septoria nodorum; assay: Test F: wheat glume blotch on wheat seedlings, sprayed the day before inoculation, visual disease rating
# Method in brief: as §1
# [4] = test system: Septoria tritici; assay: Test G: wheat leaf blotch on wheat seedlings, sprayed the day before inoculation, visual disease rating
# Method in brief: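 Disease was rated visually after Septoria tritici inoculation, 48 h saturated incubation at 24°C and 19 days in a 20°C growth chamber. Inoculation followed one day after run-off spraying of seedlings with compound at 200 ppm (≈500 g/ha) or, where marked, 40 ppm, formulated in acetone/water with surfactant.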
# [5] = test system: Puccinia recondita f. sp. tritici; assay: Test H: wheat leaf rust, test suspension sprayed after inoculation of wheat seedlings, visual disease rating
# Method in brief: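 Wheat seedlings inoculated with P. recondita spores, held 24 h saturated at 20 °C, then 2 days in growth chamber at 20 °C; compound suspension (acetone/water with Trem 014) sprayed to run-off afterwards. Rated visually; 200 ppm (≈500 g/ha) unless marked *, which denotes 40 ppm.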
# [6] = test system: Puccinia recondita f. sp. tritici; assay: Test I: wheat leaf rust on wheat seedlings, sprayed the day before inoculation, visual disease rating
# Method in brief: as §1
# [7] = test system: Erysiphe graminis f. sp. tritici; assay: Test J: wheat powdery mildew on wheat seedlings, sprayed the day before inoculation, visual disease rating
# Method in brief: as §1
# [8] = 200 ppm, 0 = no control relative to controls
Structure (SMILES),"Test C disease control rating [1, 8]","Test D disease control rating [2, 8]","Test F disease control rating [3, 8]","Test G disease control rating [4, 8]","Test H disease control rating [5, 8]","Test I disease control rating [6, 8]","Test J disease control rating [7, 8]",further results
COc1ccc(F)c(-c2c(Cl)nc(C)n2-c2ccc(Cl)c(C)c2)c1F [compound 425],100%,100%,100%,100%,0%,96%,100%,–
Cc1nc(Br)c(Cc2c(F)cc(F)cc2F)n1-c1c(Cl)cccc1Cl [compound 538],99%,0%,0%,99%,27%,100%,100%,–
Fc1ccc(-n2c(Cl)nc(Br)c2-c2c(F)ccc(F)c2F)cc1 [compound 352],100%,100%,87%,92%,18%,97%,77%,–
COc1cc(OC)cc(-c2c(Br)nc(C)n2-c2c(F)cc([N+](=O)[O-])cc2F)c1 [compound 651],97%,0%,60%,97%,0%,95%,79%,–
COc1cc(F)c(-c2c(Cl)nc(C)n2Cc2ccc(Cl)cc2)c(F)c1 [compound 287],–,–,–,–,–,–,–,"Test C disease control rating ([1]; 200 ppm, 0 = no control): 100%; Test D disease control rating ([2]; 200 ppm, 0 = no control): 100%; Test F disease control rating ([3]; 200 ppm, 0 = no control): 99%; Test G disease control rating ([4]; 200 ppm, 0 = no control): 95%; Test H disease control rating ([5]; 200 ppm, 0 = no control): 17%; Test I disease control rating ([6]; 200 ppm, 0 = no control): 100%; Test J disease control rating ([7]; 200 ppm, 0 = no control): 99%"
COc1ccc(F)c(-c2c(Cl)nc(Cl)n2-c2ccc(F)cc2)c1F [compound 390],100%,100%,99%,95%,18%,100%,100%,–
COc1cc(F)c(-c2c(Cl)nc(Br)n2-c2ccc(C)c(C#N)c2)c(F)c1 [compound 607],–,–,–,–,–,–,–,Test C disease control rating ([1]; 40 ppm (marked *)): 100* %; Test D disease control rating ([2]; 40 ppm (marked *)): 96* %; Test F disease control rating ([3]; 40 ppm (marked *)): 31* %; Test G disease control rating ([4]; 40 ppm (marked *)): 99* %; Test H disease control rating ([5]; 40 ppm (marked *)): 7* %; Test I disease control rating ([6]; 40 ppm (marked *)): 86* %; Test J disease control rating ([7]; 40 ppm (marked *)): 82* %
Fc1ccc(-n2c(Br)nc(Br)c2-c2ccc(Cl)cc2)c(Cl)c1 [compound 306],99%,96%,0%,94%,6%,91%,99%,–
COc1ccc(F)c(-c2c(Br)nc(Br)n2-c2ccc(Cl)cc2)c1F [compound 471],100%,100%,100%,97%,0%,98%,100%,–
COc1ccc(-n2c(Cl)nc(Cl)c2-c2c(F)cccc2F)c(Cl)n1 [compound 620],100%,99%,90%,98%,100%,100%,99%,–
N#Cc1ccc(F)c(-c2c(Cl)ncn2-c2ccc(F)cc2)c1F [compound 656],100%,100%,20%,99%,9%,100%,100%,–
Cc1nc(C)n(-c2ccc(Cl)c(F)c2)c1-c1c(F)ccc(F)c1Cl [compound 489],–,–,–,–,–,–,–,Test C disease control rating ([1]; 40 ppm (marked *)): 96* %; Test D disease control rating ([2]; 40 ppm (marked *)): 98* %; Test F disease control rating ([3]; 40 ppm (marked *)): 0* %; Test G disease control rating ([4]; 40 ppm (marked *)): 93* %; Test H disease control rating ([5]; 40 ppm (marked *)): 0* %; Test I disease control rating ([6]; 40 ppm (marked *)): 100* %; Test J disease control rating ([7]; 40 ppm (marked *)): 100* %
COc1cc(Cl)c(-c2c(Cl)nc(Cl)n2-c2ccc(Cl)c(F)c2)c(Cl)c1 [compound 437],99%,80%,60%,100%,0%,98%,98%,–
Fc1cc(-n2c(Cl)nc(Cl)c2-c2c(F)cncc2F)ccc1Cl [compound 593],100%,100%,99%,96%,99%,100%,100%,–
"COc1ccc(F)c(-c2c(Br)nc(Br)n2-c2ccc(F)cc2)c1F [Compound 504, 2,4-dibromo-5-(2,6-difluoro-3-methoxyphenyl)-1-(4-fluorophenyl)-1H-imidazole]",–,–,–,–,–,–,–,"pest or weed control at 200 ppm ([1]; Botrytis cinerea, 120 h, 200 ppm, 0 = no control relative to controls): 99%; pest or weed control at 200 ppm ([2]; Alternaria solani, 168 h, 200 ppm, 0 = no control relative to controls): 100%; pest or weed control at 200 ppm ([3]; Parastagonospora nodorum, 264 h, 200 ppm, 0 = no control relative to controls): 100%; pest or weed control at 200 ppm ([4]; Zymoseptoria tritici, 504 h, 200 ppm, 0 = no control relative to controls): 97%; pest or weed control at 200 ppm ([5]; Puccinia recondita, 96 h, 200 ppm, 0 = no control relative to controls): 0%; pest or weed control at 200 ppm ([6]; Puccinia recondita, 168 h, 200 ppm, 0 = no control relative to controls): 99%; pest or weed control at 200 ppm ([7]; Blumeria graminis, 168 h, 200 ppm, 0 = no control relative to controls): 100%"
Fc1cccc(-n2c(Cl)nc(Cl)c2-c2c(F)cc(F)cc2F)c1 [compound 365],100%,100%,40%,91%,54%,99%,96%,–
Cc1nc(Cl)c(Cc2c(F)cc(F)cc2F)n1-c1ccc(Cl)cc1 [compound 531],100%,0%,0%,99%,41%,99%,95%,–
Fc1cc(-n2c(Cl)nc(Cl)c2-c2ccnc(Br)c2)ccc1Cl [compound 485],96%,88%,0%,95%,0%,98%,98%,–
